Source: patent publication US9688654B2, “Compounds inhibiting leucine-rich repeat kinase enzyme activity” (Merck Sharp & Dohme Corp., priority 2013, dated 2017)

Experiments:
[1] = biological target: T1, LRRK2 (G2019S mutation, GST-LRRK2 (amino acids 970-2527)) (Homo sapiens, UniProt Q5S007, G2019S); assay: LRRK2 Km ATP LanthaScreen Assay; type: biochemical; conditions: mean IC50
T1 construct: GST-LRRK2 (amino acids 970-2527); GST (N); purchased Life Technologies Corporation
Protocol: Unless otherwise noted, all LRRK2 IC50 data presented in tables refers to the LRRK2 Km ATP LanthaScreen™ Assay that is described in the Biological Assay section.
(§1) The data presented for the 5 mM and Km ATP LanthaScreen™ Assay represents mean IC50 values based on several test results and may have reasonable. deviations depending on the specific conditions and reagents used. Reagents for the LRRK2 5 mM and Km ATP LanthaScreen™ Assay were purchased from Life Technologies Corporation.
• a) 400 nl of a 1:2.15 serial dilution of test compound (98 μM top assay concentration) is spotted via Labcyte Echo to certain wells in a 384 well black, untreated plate. Control wells contain 400 nl of either DMSO or 400 nl of a known inhibitor in DMSO. • b) 10 μl of a 2.5 nM LRRK2 (G2019S mutation, GST-LRRK2 (amino acids 970-2527)) enzyme solution in 1× assay buffer (50 mM Tris pH 8.5, 10 mM MgCl2, 0.01% Brij-35, 1.0 mM EGTA, 2 mM DTT, 0.05 mM NaVO4) is added to all wells. • c) A 30 minute room temperature incubation is followed by addition of 10 μl […]) After a 35 minute room temperature incubation, 20 μl of TR-FRET Dilution Buffer (Invitrogen PV3756B) containing 4 nM Tb-labeled anti-phospho LRRKtide antibody and 20 mM EDTA is added to all wells. • e) Plates are incubated at room temperature for 1 hour and read on an Envision™ multi-mode plate reader with LanthaScreen™ settings. Results are analysed using Assay Data Analyzer. […] Results are analysed using Assay Data Analyzer.

[2] = biological target: T1, LRRK2 (G2019S mutation, GST-LRRK2 (amino acids 970-2527)); assay: LRRK2 5 mM ATP LanthaScreen Assay; type: biochemical; conditions: mean IC50
Protocol: as §1
LRRK2 5 mM ATP LanthaScreen™ Assay
• a) 400 nl of a 1:2.15 serial dilution of test compound (98 μM top assay concentration) is spotted via Labcyte Echo to certain wells in a 384 well black, untreated plate. Control wells contain 400 nl of either DMSO or 400 nl of a known inhibitor in DMSO. • b) 10 μl of a 2.5 nM LRRK2 (G2019S mutation, GST-LRRK2 (amino acids 970-2527)) enzyme solution in 1× assay buffer (50 mM Tris pH 8.5, 10 mM MgCl2, 0.01% Brij-35, 1.0 mM EGTA, 2 mM DTT, 0.05 mM NaVO4) is added to all wells. • c) A 30 minute room temperature incubation is followed by addition of 10 μl of 800 nM fluorescein labeled LRRKtide peptide substrate and 10 mM ATP solution in 1× assay buffer to all wells. • d) After a 35 minute room temperature incubation, 20 μl of TR-FRET Dilution Buffer (Invitrogen PV3756B) containing 4 nM Tb-labeled anti-phospho LRRKtide antibody and 20 mM EDTA is added to all wells. • e) Plates are incubated at room temperature for 1 hour and read on an Envision™ multi-mode plate reader with LanthaScreen™ settings. Results are analysed using Assay Data Analyzer. […] Results are analysed using Assay Data Analyzer.

T1 sequence (Q5S007 970-2527 G2019S): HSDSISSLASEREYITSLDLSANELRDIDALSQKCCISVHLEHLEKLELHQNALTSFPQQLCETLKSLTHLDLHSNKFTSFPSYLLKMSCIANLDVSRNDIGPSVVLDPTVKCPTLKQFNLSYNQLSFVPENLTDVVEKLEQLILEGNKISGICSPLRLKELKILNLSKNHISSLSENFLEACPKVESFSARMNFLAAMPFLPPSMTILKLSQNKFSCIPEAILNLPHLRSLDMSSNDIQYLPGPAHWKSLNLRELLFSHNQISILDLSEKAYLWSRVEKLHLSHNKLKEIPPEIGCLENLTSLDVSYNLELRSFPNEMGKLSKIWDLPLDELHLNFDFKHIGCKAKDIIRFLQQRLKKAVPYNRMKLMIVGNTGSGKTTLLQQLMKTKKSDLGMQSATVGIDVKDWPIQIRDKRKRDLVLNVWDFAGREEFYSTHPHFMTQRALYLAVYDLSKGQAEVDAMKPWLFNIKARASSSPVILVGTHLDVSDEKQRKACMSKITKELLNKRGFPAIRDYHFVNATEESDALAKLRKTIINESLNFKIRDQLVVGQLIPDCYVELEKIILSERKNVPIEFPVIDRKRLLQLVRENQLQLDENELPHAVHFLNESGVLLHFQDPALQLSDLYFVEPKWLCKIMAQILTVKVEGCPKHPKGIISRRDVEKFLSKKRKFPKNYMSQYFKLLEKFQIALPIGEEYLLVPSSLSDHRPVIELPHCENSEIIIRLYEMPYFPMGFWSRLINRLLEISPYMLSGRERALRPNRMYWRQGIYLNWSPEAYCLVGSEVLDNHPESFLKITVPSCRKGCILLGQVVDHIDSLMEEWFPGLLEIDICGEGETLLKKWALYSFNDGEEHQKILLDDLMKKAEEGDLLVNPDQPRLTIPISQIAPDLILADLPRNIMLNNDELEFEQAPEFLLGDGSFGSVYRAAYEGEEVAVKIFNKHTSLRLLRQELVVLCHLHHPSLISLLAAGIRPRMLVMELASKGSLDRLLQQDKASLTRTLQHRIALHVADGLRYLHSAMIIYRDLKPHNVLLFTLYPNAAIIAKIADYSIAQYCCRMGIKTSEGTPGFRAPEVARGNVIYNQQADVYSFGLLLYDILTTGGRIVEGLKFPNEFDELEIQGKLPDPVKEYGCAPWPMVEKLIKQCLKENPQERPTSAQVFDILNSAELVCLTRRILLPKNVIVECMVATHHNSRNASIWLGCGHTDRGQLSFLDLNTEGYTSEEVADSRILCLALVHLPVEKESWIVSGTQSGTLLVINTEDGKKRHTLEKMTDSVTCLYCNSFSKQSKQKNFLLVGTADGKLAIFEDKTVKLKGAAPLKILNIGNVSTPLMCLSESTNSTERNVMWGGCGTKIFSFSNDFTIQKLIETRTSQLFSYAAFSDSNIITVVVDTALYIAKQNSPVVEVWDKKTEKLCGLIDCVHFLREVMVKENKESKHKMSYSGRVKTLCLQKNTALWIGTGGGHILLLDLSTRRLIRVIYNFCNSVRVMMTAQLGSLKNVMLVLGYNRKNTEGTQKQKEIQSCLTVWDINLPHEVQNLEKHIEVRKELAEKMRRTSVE

Row | Structure (SMILES) | IC50 [1] [nM] | IC50 [2] [nM]
1 | c1cc(-c2n[nH]c3ccc(OC4CC4)cc23)cc(N2CCC2)n1 [Example 9] | 16 | 225
2 | c1cc(-c2n[nH]c3ccc(OC4CC4)cc23)cc(N2CCN(C3CC3)CC2)n1 [Example 26] | 12 | 300
3 | CCc1nnc2n1CCN(c1cc(-c3n[nH]c4ccc(OC5CC5)cc34)ccn1)C2 [Example 23] | 12 | 297
